Experimental data from the supplement of paper PMC10307832.

Tests used:
Assay in all cases: relative viability (nuclei count vs DMSO), 5 days (fraction); higher = more cells survive
[1] = compound: C1=CC=C2C(=C1)C=CC(=C2SSC3=C(C=CC4=CC=CC=C43)O)O [IPA-3] + CCNC(=O)c1noc(-c2cc(C(C)C)c(O)cc2O)c1-c1ccc(CN2CCOCC2)cc1 [Luminespib] (partner 0.01 µM)
Outline: (§1)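 Five library-drug doses in √10 steps were combined with a fixed anchor-drug dose, or a single drug was given alone, by pin tool to lung cancer cell lines in 1536-well plates the day after seeding. Nuclei were stained and counted after 5 days. Relative viability is the nuclei count in treated wells over that in vehicle wells, taken as the median of duplicate plates.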

[2] = compound: Cn1c(Nc2ccc(C(F)(F)F)cc2)nc2cc(Oc3ccnc(-c4ncc(C(F)(F)F)[nH]4)c3)ccc21 [RAF265] + O=C(CCCCCCC(=O)Nc1ccccc1)NO [Vorinostat] (partner 1 µM)
Outline: as §1

[3] = compound: Cc1ccc(-n2nc(C(C)(C)C)cc2NC(=O)Nc2ccc(OCCN3CCOCC3)c3ccccc23)cc1 [Doramapimod] + O=C(CCCCCCC(=O)Nc1ccccc1)NO [Vorinostat] (partner 1 µM)
Outline: as §1

[4] = compound: Cn1c(Nc2ccc(C(F)(F)F)cc2)nc2cc(Oc3ccnc(-c4ncc(C(F)(F)F)[nH]4)c3)ccc21 [RAF265] + CS(=O)(=O)N1CCN(Cc2cc3nc(-c4cccc5[nH]ncc45)nc(N4CCOCC4)c3s2)CC1 [Pictilisib] (partner 1 µM)
Outline: as §1

Row | Cell Line | relative viability ([1]; first compound 0.2 µM) | relative viability ([1]; first compound 0.6325 µM) | relative viability ([1]; first compound 2 µM) | relative viability ([1]; first compound 6.325 µM) | relative viability ([1]; first compound 20 µM) | relative viability ([2]; first compound 0.01 µM) | relative viability ([2]; first compound 0.03162 µM) | relative viability ([2]; first compound 0.1 µM) | relative viability ([2]; first compound 0.3162 µM) | relative viability ([2]; first compound 1 µM) | relative viability ([3]; first compound 0.02 µM) | relative viability ([3]; first compound 0.06325 µM) | relative viability ([3]; first compound 0.2 µM) | relative viability ([3]; first compound 0.6325 µM) | relative viability ([3]; first compound 2 µM) | relative viability ([4]; first compound 0.01 µM) | relative viability ([4]; first compound 0.03162 µM) | relative viability ([4]; first compound 0.1 µM) | relative viability ([4]; first compound 0.3162 µM) | relative viability ([4]; first compound 1 µM)
1 | NCI-H1755 | 0.447 | 0.421 | 0.416 | 0.479 | 0.597 | 0.8 | 0.663 | 0.694 | 0.579 | 0.476 | 0.798 | 0.748 | 0.619 | 0.768 | 0.687 | 0.47 | 0.287 | 0.264 | 0.238 | 0.148
2 | NCI-H1793 | 0.192 | 0.381 | 0.14 | 0.462 | 0.16 | 0.865 | 0.697 | 0.633 | 0.201 | 0.311 | 0.718 | 0.708 | 0.673 | 0.749 | 0.519 | 0.296 | 0.267 | 0.447 | 0.216 | 0.179
3 | NCI-H1915 | 0.968 | 0.534 | 0.775 | 0.713 | 0.926 | 0.502 | 0.436 | 0.424 | 0.296 | 0.201 | 0.52 | 0.571 | 0.551 | 0.563 | 0.442 | 0.965 | 0.914 | 0.705 | 0.37 | 0.247
4 | NCI-H1944 | 0.914 | 0.651 | 0.891 | 0.827 | 0.937 | 0.674 | 0.602 | 0.55 | 0.405 | 0.491 | 0.504 | 0.616 | 0.575 | 0.665 | 0.611 | 0.339 | 0.343 | 0.334 | 0.293 | 0.258
5 | NCI-H1975 | 0.236 | 0.189 | 0.213 | 0.19 | 0.365 | 0.718 | 0.644 | 0.542 | 0.338 | 0.325 | 0.733 | 0.724 | 0.699 | 0.758 | 0.636 | 0.287 | 0.213 | 0.162 | 0.155 | 0.103
6 | NCI-H1993 | 1.05 | 1.32 | 0.852 | 0.478 | 0.844 | 0.9 | 0.902 | 0.756 | 0.823 | 0.768 | 0.835 | 0.723 | 0.819 | 1.18 | 0.834 | 0.888 | 0.805 | 0.934 | 0.824 | 0.763
7 | NCI-H2009 | 1.06 | 1.04 | 1.07 | 0.941 | 1.06 | 0.744 | 0.649 | 0.757 | 0.761 | 0.512 | 0.765 | 0.745 | 0.762 | 0.92 | 0.777 | 0.884 | 0.539 | 0.444 | 0.438 | 0.288
8 | NCI-H2023 | 0.93 | 0.617 | 0.674 | 0.712 | 0.693 | 0.59 | 0.501 | 0.707 | 0.515 | 0.381 | 0.718 | 0.664 | 0.556 | 0.607 | 0.519 | 0.243 | 0.212 | 0.272 | 0.152 | 0.214
